Laboratory results reported in ChEMBL document CHEMBL6114979, “Discovery of 3-indolylbenzoquinone derivatives with therapeutic potential for breast cancer” (Bioorg Med Chem, 2025).
≈ marks a conversion by molar mass, not a printed value. Calls of active or inactive are those of the source. The rule behind the calls is not given here.

Legend:
[1] = Toxicity in female Balb/c mouse implanted with mouse 4T1 cells assessed as change in spleen at 25 to 35 mg/kg, ip administered once every 2 days for 14 days; type: organism-based; conditions: in vivo, 48 h, dose 25-35 mg/kg, time 2 day
[2] = system: 4T1; experiment: Antitumor activity against mouse 4T1 cells implanted in Balb/c mouse assessed as appearance of loosely arranged tumor cells at 35 mg/kg, ip administered once every 2 days for 14 days; type: functional, organism-based; conditions: time 14.0 day
[3] = Solubility of compound in 0.1 M HCL; type: physicochemical
[4] = system: MDA-MB-231; experiment: Induction of apoptosis in human MDA-MB-231 cells assessed as late apoptotic cells at 1 uM incubated for 24 hrs by Annexin-V/PI staining based flow cytometric analysis (reference value: 3.24%); type: functional
[5] = system: 4T1; experiment: Antitumor activity against mouse 4T1 cells implanted in Balb/c mouse assessed as appearance of irregular necrotic foci at 25 mg/kg, ip administered once every 2 days for 14 days; type: functional, organism-based; conditions: time 14.0 day
[6] = system: MDA-MB-231; experiment: Induction of cell cycle arrest in human MDA-MB-231 cells assessed as accumulation of cells at S phase at 1 uM incubated for 24 hrs by PI staining based flow cytometric analysis (reference value: 8.71%); type: functional
[7] = Toxicity in Kunming mouse assessed as change in heart lesions at 240 to 469 mg/kg, ip administered for 14 days by H and E staining based analysis; type: organism-based; conditions: in vivo, 336 h, dose 240-469 mg/kg, time 14 day
[8] = Toxicity in Kunming mouse assessed as change in liver lesions at 240 to 469 mg/kg, ip administered for 14 days by H and E staining based analysis; type: organism-based; conditions: in vivo, 336 h, dose 240-469 mg/kg, time 14 day
[9] = Toxicity in Kunming mouse assessed as change in kidney lesions at 240 to 469 mg/kg, ip administered for 14 days by H and E staining based analysis; type: organism-based; conditions: in vivo, 336 h, dose 240-469 mg/kg, time 14 day
[10] = Toxicity in female Balb/c mouse implanted with mouse 4T1 cells assessed as behavioural changes at 25 to 35 mg/kg, ip administered once every 2 days; type: organism-based; conditions: in vivo, 48 h, dose 25-35 mg/kg, time 2 day
[11] = Toxicity in Kunming mouse assessed as infiltration of chronic inflammatory cells at 240 to 469 mg/kg, ip administered for 14 days by H and E staining based analysis; type: organism-based; conditions: in vivo, 336 h, dose 240-469 mg/kg, time 14 day
[12] = Hepatotoxicity in Kunming mouse assessed as change in ALT level administered intraperitoneally for 14 days (reference value: 45.75 +/- 4.65 U); type: toxicity; conditions: in vivo, ip, 336 h, time 14 day
[13] = Nephrotoxicity in Kunming mouse assessed as change in CREA level administered intraperitoneally for 14 days (reference value: 16 +/- 2.45 U); type: toxicity; conditions: in vivo, ip, 336 h, time 14 day
[14] = system: 4T1; experiment: Antitumor activity against mouse 4T1 cells implanted in Balb/c mouse assessed as reduction in tumor volume at 25 to 35 mg/kg, ip administered once every 2 days for 14 days; type: functional, organism-based; conditions: dose 25-35 mg/kg, time 14.0 day
[15] = system: 4T1; experiment: Antitumor activity against mouse 4T1 cells implanted in Balb/c mouse assessed as tumor suppression rate at 35 mg/kg, ip administered once every 2 days for 14 days relative to control; type: functional
[16] = system: 4T1; experiment: Antitumor activity against mouse 4T1 cells implanted in Balb/c mouse assessed as appearance of central tumor necrosis at 35 mg/kg, ip administered once every 2 days for 14 days relative to control; type: functional; conditions: time 14 day
[17] = Toxicity in female Balb/c mouse implanted with mouse 4T1 cells assessed as abnormalities in heart at 35 mg/kg, ip administered once every 2 days for 14 days; type: organism-based; conditions: in vivo, 336 h, time 14 day
[18] = Toxicity in female Balb/c mouse implanted with mouse 4T1 cells assessed as abnormalities in lungs at 35 mg/kg, ip administered once every 2 days for 14 days; type: organism-based; conditions: in vivo, 336 h, time 14 day
[19] = system: 4T1; experiment: Antitumor activity against mouse 4T1 cells implanted in Balb/c mouse assessed as reduction in tumor size at 80 mg/kg, IT administered once every 4 days in presence of olive oil; type: functional, organism-based
[20] = system: 4T1; experiment: Antitumor activity against mouse 4T1 cells implanted in Balb/c mouse assessed as reduction in tumor weight at 80 mg/kg, IT administered once every 4 days in presence of olive oil; type: functional, organism-based
[21] = system: 4T1; experiment: Antitumor activity against mouse 4T1 cells implanted in Balb/c mouse assessed as reduction in tumor volume at 80 mg/kg, IT administered once every 4 days in presence of olive oil; type: functional, organism-based
[22] = system: 4T1; experiment: Antitumor activity against mouse 4T1 cells implanted in Balb/c mouse assessed as tumor inhibition rate at 80 mg/kg, IT administered once every 4 days in presence of olive oil relative to control; type: functional; set-up: scale not given: the % may be the effect or the level left
[23] = Toxicity in female Balb/c mouse implanted with mouse 4T1 cells assessed as change in body weight at 200 mg/kg, TOP administration once every 2 days for 14 days; type: organism-based; conditions: in vivo, topical_or_ocular, 336 h, time 14 day
[24] = system: 4T1; experiment: Antitumor activity against mouse 4T1 cells implanted in Balb/c mouse assessed as smaller tumor at 200 mg/kg, TOP administration once every 2 days for 14 days; type: functional, organism-based; conditions: time 14.0 day
[25] = system: 4T1; experiment: Antitumor activity against mouse 4T1 cells implanted in Balb/c mouse assessed as tumor inhibition rate at 200 mg/kg, TOP administration once every 2 days for 14 days relative to control; type: functional; set-up: scale not given: the % may be the effect or the level left; conditions: time 14 day
[26] = system: 4T1; experiment: Antitumor activity against mouse 4T1 cells implanted in Balb/c mouse assessed as appearance of chromatin aggregation at 80 mg/kg, IT administered once every 4 days for 14 days in presence of olive oil by TEM analysis; type: functional, organism-based; conditions: time 14.0 day
[27] = system: 4T1; experiment: Antitumor activity against mouse 4T1 cells implanted in Balb/c mouse assessed as appearance of chromatin aggregation at 25 to 35 mg/kg, ip administered once every 2 days for 14 days by TEM analysis; type: functional, organism-based; conditions: dose 25-35 mg/kg, time 14.0 day
[28] = system: 4T1; experiment: Antitumor activity against mouse 4T1 cells implanted in Balb/c mouse assessed as appearance of nuclear membrane disruption at 80 mg/kg, IT administered once every 4 days for 14 days in presence of olive oil by TEM analysis; type: functional, organism-based; conditions: time 14.0 day
[29] = system: 4T1; experiment: Antitumor activity against mouse 4T1 cells implanted in Balb/c mouse assessed as appearance of mitochondrial swelling at 25 to 35 mg/kg, ip administered once every 2 days for 14 days by TEM analysis; type: functional, organism-based; conditions: dose 25-35 mg/kg, time 14.0 day
[30] = system: 4T1; experiment: Antitumor activity against mouse 4T1 cells implanted in Balb/c mouse assessed as appearance of vacuolation at 80 mg/kg, IT administered once every 4 days for 14 days in presence of olive oil by TEM analysis; type: functional, organism-based; conditions: time 14.0 day
[31] = system: 4T1; experiment: Antitumor activity against mouse 4T1 cells implanted in Balb/c mouse assessed as damage in endoplasmic reticulum at 200 mg/kg, TOP administration once every 2 days for 14 days; type: functional, organism-based; conditions: time 14.0 day
[32] = biological target: Phosphatidylinositol 4,5-bisphosphate 3-kinase catalytic subunit alpha (Homo sapiens) (UniProt P42336); experiment: Binding affinity to P13Kalpha in human MDA-MB-231 cells assessed as thermal stabilization at 6.4 uM incubated for 2 hrs by CETSA based Western blotting analysis
Phosphatidylinositol 4,5-bisphosphate 3-kinase catalytic subunit alpha (Homo sapiens), sequence (P42336 whole entry, looked up): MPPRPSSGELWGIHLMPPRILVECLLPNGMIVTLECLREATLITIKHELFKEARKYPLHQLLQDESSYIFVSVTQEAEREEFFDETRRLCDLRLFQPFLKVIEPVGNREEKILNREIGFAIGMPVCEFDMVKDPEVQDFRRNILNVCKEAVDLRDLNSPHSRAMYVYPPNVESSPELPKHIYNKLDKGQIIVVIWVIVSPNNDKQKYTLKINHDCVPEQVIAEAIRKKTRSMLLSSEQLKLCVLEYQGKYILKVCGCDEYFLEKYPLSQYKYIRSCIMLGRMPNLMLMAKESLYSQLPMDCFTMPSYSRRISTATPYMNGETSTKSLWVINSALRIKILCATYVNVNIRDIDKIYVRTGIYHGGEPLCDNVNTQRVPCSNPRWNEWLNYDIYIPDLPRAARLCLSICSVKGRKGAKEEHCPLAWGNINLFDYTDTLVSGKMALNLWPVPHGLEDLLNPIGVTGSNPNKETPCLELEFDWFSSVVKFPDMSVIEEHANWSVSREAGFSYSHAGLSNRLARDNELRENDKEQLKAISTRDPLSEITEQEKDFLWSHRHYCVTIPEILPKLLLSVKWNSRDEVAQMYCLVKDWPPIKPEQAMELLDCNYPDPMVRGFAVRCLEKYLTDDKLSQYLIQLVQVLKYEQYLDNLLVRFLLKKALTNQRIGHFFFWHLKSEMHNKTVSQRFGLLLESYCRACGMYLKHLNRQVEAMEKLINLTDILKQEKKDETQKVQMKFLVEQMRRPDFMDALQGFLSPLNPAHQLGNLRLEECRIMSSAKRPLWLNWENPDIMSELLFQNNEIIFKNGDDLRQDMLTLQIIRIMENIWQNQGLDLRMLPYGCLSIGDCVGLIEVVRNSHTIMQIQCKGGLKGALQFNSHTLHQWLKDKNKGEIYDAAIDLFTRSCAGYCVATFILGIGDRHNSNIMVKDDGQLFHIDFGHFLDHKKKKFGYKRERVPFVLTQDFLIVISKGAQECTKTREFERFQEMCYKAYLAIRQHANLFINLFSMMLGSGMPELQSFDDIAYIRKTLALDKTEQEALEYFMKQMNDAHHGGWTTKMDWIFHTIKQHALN

Cc1[nH]c2ccccc2c1C1=C(F)C(=O)C(F)=C(N2CCOCC2)C1=O
Activity [1]: Non-toxic | Activity [2]: Active | solubility [3]: 19 µg/mL (≈ 53 µM) | Activity [4]: 26.4% | Activity [5]: Active | Activity [6]: 4.21% | Activity [7]: Non-toxic | Activity [8]: Non-toxic | Activity [9]: Non-toxic | Activity [10]: Non-toxic | Activity [11]: Toxic | Activity [12]: 28.8 U/L | Activity [13]: 12.25 U | Activity [14]: Active | Activity [15]: 50% | Activity [16]: 100% | Activity [17]: Non-toxic | Activity [18]: Non-toxic | Activity [19]: Active | Activity [20]: Active | Activity [21]: Active | Activity [22]: 41.9% | Activity [23]: Non-toxic | Activity [24]: Active | Activity [25]: 38.9% | Activity [26]: Active | Activity [27]: Active | Activity [28]: Active | Activity [29]: Active | Activity [30]: Active | Activity [31]: Active | Activity [32]: Active
